Experimental data from publication PMC4668926 (Biochemistry, 2015).

Key:
[1] = molecular target: T1, KPR (ketopantoate reductase) (Staphylococcus aureus, UniProt A0A0J9X283); test: FRET titration, Trp167 to bound NADPH; assay type: binding
T1 sequence (A0A0J9X283 1-286): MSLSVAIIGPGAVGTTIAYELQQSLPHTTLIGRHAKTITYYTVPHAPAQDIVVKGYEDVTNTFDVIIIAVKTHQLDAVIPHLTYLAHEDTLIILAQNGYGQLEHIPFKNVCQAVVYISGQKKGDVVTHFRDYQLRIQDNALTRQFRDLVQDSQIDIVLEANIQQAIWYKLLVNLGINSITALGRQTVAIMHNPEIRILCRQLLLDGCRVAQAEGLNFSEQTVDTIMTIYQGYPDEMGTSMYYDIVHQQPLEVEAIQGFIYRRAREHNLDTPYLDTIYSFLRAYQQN

[2] = molecular target: Staphylococcus aureus ketopantoate reductase (Staphylococcus aureus); test: AUC

Compound | Kd [1] | stoichiometry N [2]
NC(=O)C1=CN([C@@H]2O[C@H](COP(=O)(O)OP(=O)(O)OC[C@H]3O[C@@H](n4cnc5c(N)ncnc54)[C@H](OP(=O)(O)O)[C@@H]3O)[C@@H](O)[C@H]2O)C=CC1 [NADPH] | 58 ± 2 nM | –
Staphylococcus aureus ketopantoate reductase (enzyme) | – | 2
